Laboratory results from US20120101147A1, “INHIBITION OF HDAC2 TO PROMOTE MEMORY” (The General Hospital Corporation d/b/a Massachusetts …, priority 2008, published 2012).
“Also recorded” adds a separate entry of the source.

Tests used:
tetra-acetylated H4 = assay: Western blot of tetra-acetylated H4 in primary striatal cells; format: cell-based, mouse; conditions: relative to DMSO controls
Protocol: (§1) Four compounds were tested including CI-994 (BRD-3696) and SAHA. […] BRD-6929 and BRD-5298 treatment results in a 2-5 fold increase in both marks at 1 and 10 uM.

tetra-acetylated H2B = assay: Western blot of tetra-acetylated H2B in primary striatal cells; format: cell-based, mouse; conditions: relative to DMSO controls
Protocol: as §1

[1] = system: primary neuronal cultures; assay: Immunofluorescence: overall cell number in primary neuronal cultures; format: cell-based, mouse; conditions: 1 and 10 uM; 6 h; primary neuronal cell cultures
Protocol: (§2) 1) Compounds were pin transferred from 384-well plates (Abgene) using a 185 nl pin tool using a no touch bottom protocol.
(§3) 1) Media was aspirated using a plate washer (Tecan) protocol that leaves ˜5 ul residual volume and without touching the bottom of plates); or alternatively, wells were gently aspirated to remove media with 12-channel aspirator wand.
(§4) 2) A multichannel pipet or use liquid handling system (e.g. Combi, standard tubing; slow speed) was used to add 75 ul formaldehyde (4% in PBS) and wells incubated 10 min at room temperature.
(§5) 3) Formaldehyde was aspirated and cells rinsed 3 times with 100 ul PBS;
(§6) 4) PBS was aspirated and 100 ul blocking/permeablization buffer (0.1% Triton-X100, 2% BSA, in PBS) added and wells incubate 1 hour at room temperature.
(§7) 5) Blocking buffer was aspirated and 50 ul primary antibody diluted 1:500 in blocking buffer was added and wells incubated overnight at 4 degrees.
(§8) 1) Primary antibody was aspirated and wells rinsed 3 times with 100 ul blocking buffer
(§9) 2) 50 ul of secondary antibody diluted 1:500 and with Hoeschst (1:1000 from 10 mg/mL (16 mM) stock) added and wells incubated 1.5 hours at room temperature covered in foil to prevent photobleaching.
(§10) 3) Wells were rinsed 3 times with 100 ul PBS, and a 100 uls of PBS added and the plates, sealed
(§11) 4) Plates were then read on Acumen/IX Micro

H2B acetylation = assay: Immunofluorescence: H2B acetylation in primary neuronal cell cultures; format: cell-based, mouse; conditions: 1 and 10 uM; 6 h; primary neuronal cell cultures
Protocol: as §2, §3, §4, §5, §6, §7, §8, §9, §10, §11

mice = assay: Context-dependent fear conditioning memory test; format: in vivo, mouse
Protocol: Fear conditioning tests Context-dependent fear conditioning. Training consists of a 3 min exposure of mice to the conditioning box (context) followed by a foot shock (2 sec, 0.5/0.8/1.0 mA, constant current). The memory test was performed 24 hr later by re-exposing the mice for 3 min into the conditioning context. Freezing, defined as a lack of movement except for heart beat and respiration associated with a crouching posture, was recorded every 10 sec by two trained observers (one was unaware of the experimental conditions) during 3 min (a total of 18 sampling intervals). The number of observations indicating freezing obtained as a mean from both observers was expressed as a percentage of the total number of observations.
Chemical administration Suberoylanilide hydroxamic acid (SAHA) was synthesized as described previously in WO 93/07148 PTC/US92/08454. Sodium butyrate was purchased from Sigma (cat.B5887). SAHA and WT-161 were dissolved in DMSO as stock solutions and diluted in saline just before injection. Sodium butyrate was prepared in saline. Mice received intraperitoneal injection daily with either SAHA or saline for 10 days or 21 days.
C57/BL6 WT mice were injected with vehicle or BRD-6929 for 10 days. On day 11, mice were trained in contextual fear conditioning paradigm (Training consisted of a 3 min exposure of mice to the conditioning box (context, TSE) followed by a foot shock (2 sec, 0.8 mA, constant current). One hour after training, mice were injected with BRD-6929 or vehicle. On day 12, mice were returned to the training box and the freezing behavior were monitored and recorded.

c-fos = c-fos positive cells after fear conditioning training; format: in vivo, mouse; conditions: compared to saline treated group
Text: Studies described in the Examples below were also undertaken to determine which of the 11 histone deacetylases is responsible for the observed function and to identify selective HDAC inhibitors for enhancing memory. […] Remarkably, HDAC2 neuron specific knockout mice (loss of function) display enhanced learning. […] Thus it was unexpected that HDAC1/HDAC2 inhibitors would be useful for enhancing memory.

[2] = system: CA1 region of hippocampus; assay: Golgi staining and synaptophysin immunostaining of hippocampal CA1; format: in vivo, mouse
Protocol: Memory test for mice with contextual fear conditioning training (foot shock 1.0 mA). HDAC2OE mice (SAHA group, n=12; saline group, n=12) and WT littermates (SAHA group, n=12; saline group, n=15) were treated with saline or SAHA (25 mg/kg, i.p.) for 10 days before memory test. b. CA1 region (pyramidal neuron layer; stratum radiatum (s.r.)) from WT and HDAC2OE mice received chronic SAHA treatment or saline treatment and were observed through immunostaining. Average optical signals for Ac-lysine were measured on pyramidal neuron layer; SVP signals were measured from s.r. c. Images of Golgi staining from CA1 region of hippocampus. For WT, naive, n=23; WT, SAHA, n=41; HDAC2OE, naïve, n=21; HDAC2OE, SAHA, n=32. Scale bar 10 μm. d. Memory test for mice with contextual fear conditioning training (foot shock 0.5 mA) after 10 day SAHA injection (25 mg/kg, i.p.). WT mice (SAHA, n=10; saline, n=10) and HDAC2 KO mice (SAHA, n=8; saline, n=8). e. CA1 region from HDAC2KO mice received chronic SAHA treatment or saline treatment and were observed through immunostaining. SVP-singles were quantified in the s.r. Saline, n=15; SAHA, n=22. Scale bar=50 μm. f. Images of Golgi staining of CA1 region of hippocampus from HDAC2KO mice. HDAC2KO, SAHA, n=24; HDAC2KO, naïve, n=27. *, p<0.05; **, p<0.005; ***,p<0.001, unpaired student t-test error bars indicate s.e.m.
Golgi impregnation Golgi-Cox-stained brains were cut to 200 μm thick cross-sections with vibratome and analyzed using a Zeiss 200 Axiovert microscope and Openlab software. The number of apical and basal spines on hippocampal CA1 pyramidal neurons was counted blind to the genotype. For each experimental group, a minimum of 10 cells per slice (animal number n=3) were analyzed. CA1 hippocampal neurons within the region −1.4 mm to −1.6 mm (relative to the bregma position) were included for the analysis.
Immunohistochemistry Immunohistochemical analysis was performed as described before (Guan, J. S., et al., Cell, 2005. 122(4): p. 619-31.). Antibodies were used in a 1:1000 concentration. […] Staining was quantified using LSMetal0 software (Zeiss).

hippocampus = assay: Long-term potentiation (LTP) in hippocampal slices of treated mice; format: in vivo, mouse; conditions: 25 mg/kg i.p. 10 days, one HFS 1×100 Hz
Protocol: FIG. 6 SAHA treatment facilitates LTP in WT but not HDAC2KO hippocampus. a-b. One-month-old HDAC2KO mice and their WT littermates were injected with SAHA (25 mg/kg, i.p.) or saline for 10 days. An additional injection was introduced 30 minutes before sacrifice. Long-term potentiation (LTP) was induced by one HFS stimulation (1×100 Hz, 1 s) of Schaffer collaterals. a. […] (**, p<0.005, two-way ANOVA).
Electrophysiological analysis. 3-6 months old HDAC2OE, HDAC2KO or their littermates were killed by cervical dislocation, and hippocampi were rapidly dissected in iced oxygenated artificial CSF (ACSF). Transverse hippocampal slices, 400 μm thick were placed in a chamber and continuously perfused with oxygenated ACSF. A bipolar stimulating electrodes (0.002-inch-diameter nichrome wire; A-M Systems) placed in the stratum radiatum was used to elicit action potentials in CA3 axons. An ACSF-filled glass microelectrode with a resistance between 0.5 and 3 MΩ was placed in the stratum radiatum region of CA1 and was used to record the field excitatory post-synaptic potentials (fEPSP). Data were acquired using HEKA EPC10 and analyzed by patchmaster (HEKA). […] Baseline responses were recorded for 20 min. fEPSP were evoked at the CA1 synapses by stimulating Schaffer collaterals at a low frequency (2 per min) to establish a stable baseline. […]

HDAC6 = molecular target: T1, HDAC6 (Homo sapiens, UniProt Q9UBN7); conditions: cited from earlier work
T1 sequence (Q9UBN7 1-1215): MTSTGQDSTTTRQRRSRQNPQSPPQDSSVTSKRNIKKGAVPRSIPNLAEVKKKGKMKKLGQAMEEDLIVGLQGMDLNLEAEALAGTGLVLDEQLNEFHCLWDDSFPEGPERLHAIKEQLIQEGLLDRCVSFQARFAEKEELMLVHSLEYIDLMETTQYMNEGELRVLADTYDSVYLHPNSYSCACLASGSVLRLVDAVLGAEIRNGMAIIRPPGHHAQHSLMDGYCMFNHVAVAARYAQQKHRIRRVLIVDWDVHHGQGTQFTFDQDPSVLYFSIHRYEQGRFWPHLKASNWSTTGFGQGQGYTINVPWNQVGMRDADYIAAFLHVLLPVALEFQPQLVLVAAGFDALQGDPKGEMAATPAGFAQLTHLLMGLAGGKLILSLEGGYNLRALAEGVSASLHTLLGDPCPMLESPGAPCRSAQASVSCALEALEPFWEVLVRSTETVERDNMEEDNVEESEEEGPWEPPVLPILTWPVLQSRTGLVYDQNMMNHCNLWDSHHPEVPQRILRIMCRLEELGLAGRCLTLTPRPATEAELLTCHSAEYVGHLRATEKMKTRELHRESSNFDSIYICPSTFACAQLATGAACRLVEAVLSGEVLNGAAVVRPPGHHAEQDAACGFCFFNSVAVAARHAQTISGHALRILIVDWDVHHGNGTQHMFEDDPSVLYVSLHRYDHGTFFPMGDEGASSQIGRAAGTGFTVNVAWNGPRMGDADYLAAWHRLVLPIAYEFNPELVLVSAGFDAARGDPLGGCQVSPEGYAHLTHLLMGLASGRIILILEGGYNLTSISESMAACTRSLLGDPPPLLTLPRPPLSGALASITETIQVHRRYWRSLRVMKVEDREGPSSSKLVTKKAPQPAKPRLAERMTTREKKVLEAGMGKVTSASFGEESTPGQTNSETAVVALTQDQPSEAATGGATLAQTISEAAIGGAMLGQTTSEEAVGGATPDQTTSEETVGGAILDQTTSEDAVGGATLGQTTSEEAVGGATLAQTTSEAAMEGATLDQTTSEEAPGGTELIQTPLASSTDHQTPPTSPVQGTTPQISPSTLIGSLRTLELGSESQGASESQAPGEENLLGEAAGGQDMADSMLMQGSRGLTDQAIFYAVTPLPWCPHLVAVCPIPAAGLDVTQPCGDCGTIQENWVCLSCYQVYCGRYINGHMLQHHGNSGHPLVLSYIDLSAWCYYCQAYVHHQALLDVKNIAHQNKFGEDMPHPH

[3] = HDAC2KO mice, chronic treatment

CN1CCN(CCNC(=O)c2ccc(C(=O)Nc3cc(-c4cccs4)ccc3N)cc2)CC1 [BRD-5298, N1-(2-amino-5-(thiophen-2-yl)phenyl)-N4-(2-(4-methylpiperazin-1-yl)ethyl)terephthalamide]
tetra-acetylated H4 (tetra-acetylated H4): significantly increased
tetra-acetylated H2B (tetra-acetylated H2B): trend toward increasing
overall cell number [1]: do not cause an increase or decrease
H2B acetylation (H2B acetylation): significant increase

Nc1ccccc1NC(=O)c1ccc(CNC(=O)OCc2cccnc2)cc1 [MS-275]
associative learning in mice (mice; mouse, in vivo): did not facilitate
number of c-fos positive cells after fear conditioning training (c-fos): lower number

O=C(CCCCCCC(=O)Nc1ccccc1)NO [SAHA, suberoylanilide hydroxamic acid]
dendritic spine density of CA1 neurons [2, 3]: not significantly affected
synaptophysin staining in the stratum radiatum [2, 3]: not significantly affected
decreased dendritic spine and synapses phenotype ([2]; HDAC2OE mice, chronic treatment 25 mg/kg i.p.): completely abrogated
LTP (hippocampus; HDAC2 KO hippocampus): did not have a detectable effect; also recorded: No significant difference
LTP (hippocampus; WT hippocampus): modestly increased; also recorded: significant increase
freezing behavior (mice; HDAC2KO mice, 25 mg/kg i.p. 10 days, foot shock 0.5 mA, n=8): 52.1±9.8%
freezing behavior (mice; HDAC2OE mice, 25 mg/kg i.p. daily 10 days, foot shock 1.0 mA, n=12): 66.7±5.1%
freezing behavior (mice; WT control mice, 25 mg/kg i.p. 10 days, foot shock 0.5 mA, n=10): 45.0±6.9%
freezing behavior (mice; WT control mice, 25 mg/kg i.p. daily 10 days, foot shock 1.0 mA, n=12): 63.9±4.2%

CCCC(=O)[O-].[Na+] [SB, sodium butyrate]
inhibition of HDAC6 activity in vitro (HDAC6): does not inhibit
